Patent US20220305012A1, “L[…] TREATING SLEEP ISSUES” (EISAI R&D MANAGEMENT CO., LTD., priority 2019, published 2022)

Columns and labels:
Format in all cases: in vivo, human
[1] = system: Subjects Having Insomnia Disorder; assay: Example 3: proportion of subjects whose ISI Total Score decreased by 7 or more points (pooled); details: for percentage of subjects whose ISI Total Score decreased by 7 or more points: end of month 1, pooled Examples 1 and 2; for Total Insomnia Severity Index Score Decreased by ≥7 Points, Difference of proportion vs. Placebo / Total Insomnia Severity Index Score Decreased from Baseline to Month 1 by ≥7 Points, Responder No, n (%) / Total Insomnia Severity Index Score Decreased from Baseline to Month 1 by ≥7 Points, Responder Yes, n (%): Month 1
Experimental: (§1) The data collected in studies described in Example 1 and Example 2 were pooled and the response of each subject was analyzed.
(§2) Table 32 provides the summary and analysis of responders, defined as those subjects whose Total ISI Score decreased at the end of month 1 by 7 or more points compared to baseline. Table 33 provides the summary and analysis of responders, defined as those subjects whose ISI Total Score decreased compared to baseline and was less than 10 at month 1.

[2] = system: Subjects Having Insomnia Disorder; assay: Example 2: minutes asleep in sleep stages (N1, N2, N3, REM, non-REM); details: both doses (FIG. 15)
Experimental: FIG. 13A, FIG. 13B, and FIG. 13C show the change from baseline (least squares mean) in the minutes asleep during Stage N1, Stage N2, and Stage N3 sleep, respectively, at Nights 1/2 and Nights 29/30 in patients treated with placebo, 6.25 mg of zolpidem, 5 mg of lemborexant, or 10 mg of lemborexant.

[3] = system: Subjects Having Insomnia Disorder; assay: Example 3: proportion of subjects whose ISI Total Score decreased and was <10 (pooled); details: for percentage of subjects whose ISI Total Score decreased at month 1 and was less than 10: end of month 1, pooled Examples 1 and 2; for Responder No: subjects whose Insomnia Severity Index Total Score decreased from Baseline to Month 1 and was <10 / Responder Yes: subjects whose Insomnia Severity Index Total Score decreased from Baseline to Month 1 and was <10: Full Analysis Set, Examples 1 and 2; for Responder No: subjects whose Insomnia Severity Index Total Score decreased from Baseline to Month 1 and was <10 / Responder Yes: subjects whose Insomnia Severity Index Total Score decreased from Baseline to Month 1 and was <10 / Difference of proportion of responders vs. Placebo: Month 1; for Difference of proportion of responders vs. Placebo: ISI Total Score decreased and <10
Experimental: as §1, §2

[4] = system: Subjects Having Insomnia Disorder; assay: Example 1: subjective sleep onset latency (sSOL), Sleep Diary
Excerpt: As used herein, the term “subjective sleep onset latency”, abbreviated as “sSOL”, means the estimated number of minutes from the time that the subject attempted to sleep until sleep onset. In some embodiments, sSOL is derived from data entered in a subject's Sleep Diary.
In some embodiments, sleep diaries were used to assess sleep parameters reported by subjects (i.e., subjective assessments) including subjective sleep onset latency (sSOL), subjective sleep efficiency (sSE), subjective WASO (sWASO), and subjective total sleep time (sTST). Subjects were instructed to complete the Sleep Diary developed based on the consensus Sleep Diary as described in Carney et al., “The consensus sleep diary: standardizing prospective sleep self-monitoring,” Sleep 2012; 35(2):287-302. In some embodiments, the Sleep Diary was used to assess the subject's global perception of quality of sleep on the previous night with the following question: “How would you rate the quality of your sleep last night?” Subjects rated the quality of their sleep on a scale from 1 to 9, with 1 being extremely poor and 9 being extremely good. In some embodiments, the Sleep Diary was used to assess subjective ratings of morning sleepiness with the following question: “How alert/sleepy do you feel this morning?” Subjects rated their sleepiness/alertness level on a Likert scale from 1 to 9, with 1 being extremely sleepy and 9 being extremely alert.
sSOL—subjective sleep onset latency: estimated minutes from the time that the subject attempted to sleep until sleep onset.
Subjects were randomized in a double-blind manner and received either placebo, 5 mg of lemborexant, or 10 mg of lemborexant (approximately 1:1:1 randomization). All subjects underwent routine safety monitoring through the study, including assessments of treatment-emergent adverse events, 12-lead electrocardiograms, vital signs, weight, and clinical hematology and blood chemistry labs. Suicidality was assessed using the eC-SSRS.
Treatment period 1 began with the first dose of randomized study medication (placebo, 5 mg of lemborexant, or 10 mg of lemborexant). Subjects completed sleep diaries daily in the morning, within one hour of waketime. The subjects were assessed by a clinician one month, two months, three months, and six months after initiation of Treatment period 1. The following assessments were conducted:
The primary endpoint was the mean change from study baseline in subjective sleep onset latency at month 6.

## Cc1ncc(OC[C@@]2(c3cccc(F)c3)C[C@H]2C(=O)Nc2ccc(F)cn2)c(C)n1 [Lemborexant, (1R,2S)-2-(((2,4-dimethylpyrimidin-5-yl)oxy)methyl)-2-(3-fluorophenyl)-N-(5-fluoropyridin-2-yl)cyclopropanecarboxamide]
[1]; 5 mg
  percentage of subjects whose ISI Total Score decreased by 7 or more points: 47.3%
[1]; 10 mg
  percentage of subjects whose ISI Total Score decreased by 7 or more points: 47.8%
[1]; Lemborexant 5 mg
  Total Insomnia Severity Index Score Decreased by ≥7 Points, Difference of proportion vs. Placebo: 13.12
  Total Insomnia Severity Index Score Decreased from Baseline to Month 1 by ≥7 Points, Responder No, n (%): 283 (48.6) n (%)
  Total Insomnia Severity Index Score Decreased from Baseline to Month 1 by ≥7 Points, Responder Yes, n (%): 275 (47.3) n (%)
[1]; Lemborexant 10 mg
  Total Insomnia Severity Index Score Decreased by ≥7 Points, Difference of proportion vs. Placebo: 13.61
  Total Insomnia Severity Index Score Decreased from Baseline to Month 1 by ≥7 Points, Responder No, n (%): 261 (44.7) n (%)
  Total Insomnia Severity Index Score Decreased from Baseline to Month 1 by ≥7 Points, Responder Yes, n (%): 279 (47.8) n (%)
[1]; both doses, month 1 (Table 32)
  difference of proportion of responders (ISI Total Score decreased by 7 or more points) versus placebo: statistically significant
[2]
  non-REM sleep: greater increase in non-REM sleep compared to treatment with placebo and zolpidem ER
[3]; 5 mg
  percentage of subjects whose ISI Total Score decreased at month 1 and was less than 10: 33.0%
[3]; 10 mg
  percentage of subjects whose ISI Total Score decreased at month 1 and was less than 10: 33.4%
[3]; Lemborexant 5 mg (N = 582)
  Responder No: subjects whose Insomnia Severity Index Total Score decreased from Baseline to Month 1 and was <10: 366 (62.9) n (%)
  Responder Yes: subjects whose Insomnia Severity Index Total Score decreased from Baseline to Month 1 and was <10: 192 (33.0) n (%)
[3]; Lemborexant 5 mg vs placebo
  Difference of proportion of responders vs. Placebo: 12.44
[3]; Lemborexant 10 mg (N = 584)
  Responder No: subjects whose Insomnia Severity Index Total Score decreased from Baseline to Month 1 and was <10: 345 (59.1) n (%)
  Responder Yes: subjects whose Insomnia Severity Index Total Score decreased from Baseline to Month 1 and was <10: 195 (33.4) n (%)
[3]; Lemborexant 10 mg vs placebo
  Difference of proportion of responders vs. Placebo: 12.71
[3]; both doses, month 1 (Table 33)
  difference of proportion of responders (ISI Total Score decreased and less than 10) versus placebo: statistically significant
[4]; 5 mg and 10 mg, at the equivalent timepoint (Table 2)
  subjective sleep onset latency compared with placebo: shorter subjective sleep onset latency than subjects treated with placebo
[4]; 5 mg, First 7 Nights
  sSOL, Geometric Mean: 30.99 min
  sSOL, Mean: 45.69 min
  sSOL, Median: 36.58 min
[4]; 5 mg, Month 1
  sSOL, Geometric Mean: 26.98 min
  sSOL, Mean: 41.89 min
  sSOL, Median: 32.50 min
[4]; 5 mg, Month 3
  sSOL, Geometric Mean: 21.72 min
  sSOL, Mean: 34.31 min
  sSOL, Median: 24.79 min
[4]; 5 mg, Month 6
  sSOL, Geometric Mean: 18.62 min
  sSOL, Mean: 29.49 min
  sSOL, Median: 22.29 min
[4]; 5 mg, Study Baseline
  sSOL, Geometric Mean: 42.97 min
  sSOL, Mean: 62.19 min
  sSOL, Median: 53.57 min
[4]; 5 mg, after 1 Month
  sSOL Change from Study Baseline, Mean: -19.41 min
  sSOL Change from Study Baseline, Median: -13.71 min
[4]; 5 mg, after 3 Months
  sSOL Change from Study Baseline, Mean: -25.08 min
  sSOL Change from Study Baseline, Median: -20.71 min
[4]; 5 mg, after 6 Months
  sSOL Change from Study Baseline, Mean: -29.39 min
  sSOL Change from Study Baseline, Median: -21.81 min
[4]; 5 mg, after 7 Nights
  sSOL Change from Study Baseline, Mean: -16.86 min
  sSOL Change from Study Baseline, Median: -11.00 min
[4]; 10 mg, First 7 Nights
  sSOL, Geometric Mean: 30.77 min
  sSOL, Mean: 45.94 min
  sSOL, Median: 35.71 min
[4]; 10 mg, Month 1
  sSOL, Geometric Mean: 27.14 min
  sSOL, Mean: 41.93 min
  sSOL, Median: 31.79 min
[4]; 10 mg, Month 3
  sSOL, Geometric Mean: 22.71 min
  sSOL, Mean: 36.13 min
  sSOL, Median: 26.42 min
[4]; 10 mg, Month 6
  sSOL, Geometric Mean: 19.35 min
  sSOL, Mean: 33.09 min
  sSOL, Median: 23.57 min
[4]; 10 mg, Study Baseline
  sSOL, Geometric Mean: 45.05 min
  sSOL, Mean: 64.97 min
  sSOL, Median: 55.71 min
[4]; 10 mg, after 1 Month
  sSOL Change from Study Baseline, Mean: -24.06 min
  sSOL Change from Study Baseline, Median: -19.86 min
[4]; 10 mg, after 3 Months
  sSOL Change from Study Baseline, Mean: -27.94 min
  sSOL Change from Study Baseline, Median: -25.71 min
[4]; 10 mg, after 6 Months
  sSOL Change from Study Baseline, Mean: -32.49 min
  sSOL Change from Study Baseline, Median: -28.21 min
[4]; 10 mg, after 7 Nights
  sSOL Change from Study Baseline, Mean: -18.89 min
  sSOL Change from Study Baseline, Median: -12.21 min
